# Laboratory results reported in patent US7514432B2, “Compounds and methods of treating cell proliferative diseases, retinopathies and arthritis” (Exonhit Therapeutics SA, priority 2003, dated 2009).
# Read-outs that look alike come from different tables or passages of the source.
# Experiments:
# [1] = system: HMEC1; assay: Cell viability assay (MTT), HMEC1; assay type: cell-based, Human; details: 10% FBS; for IC50: MTT, 6-day treatment, 1% DMSO
# Method: (§1) Table 12: 6-day cell viability assay (MTT) in the presence of 10% Fetal Bovine Serum and 1% DMSO, in HMEC1, HCT116, MDA-MB-231, MCF7 and NIH3T3 cell lines. 3 10^3 to 15 10^3 cells were seeded in 48-well plates in growth medium containing 10% FBS, with or without various concentrations of test compounds. Cell cultures were fed every 3 days with the appropriate media. Cell viability was determined on day 6. Data were analyzed and IC50s were calculated from dose-response curves using GraphPad Prism. Results summarized in the tables are mean±SEM of 1 to 8 independent experiments.
# (§2) In order to determine a compound's effect on cell viability, microculture tetrazolium assays (MTT) were performed as described by Carmichael et al. (1996) with modifications. Four human tumoral cell lines, namely HCT116 colon adenocarcinoma, H460 lung carcinoma, MCF-7 and MDA-MB-231 breast carcinoma cell lines, DLD1 colorectal adenocarcinoma, HeLa adenocarcinoma, HepG2 hepatocellular carcinoma. 3 immortalized but non tumorigenic cell lines, namely NIH3T3 mouse fibroblasts (American Type Culture Collection) and primary hepatocytes (Biopredic international), cultured according to their recommendations together with Human Microvasculature Endothelial Cell line HMEC1 (National Center for Infectious Diseases). Briefly, cells were seeded in 48-well plates 24 hours before drug addition. Cells were treated with 0 to 200 μM (11 concentrations) of compound solubilized in DMSO, adjusting the final concentration of DMSO to 1% in the well. 16 hours, and three or six days after treatment, 0.5 mg/ml MTT (Sigma) was added to the medium and cells were incubated for 1-5 hours at 37° C. before solubilization of formazan crystals in 100% DMSO. Absorbance was measured using a spectrophotometer at a wavelength of 550 nm. Data was analyzed using the GraphPad Prism software (GraphPad Software, Inc.), and IC50 (dose leading to 50% cell death) was calculated from the dose-response curves.
# [2] = system: NIH 3T3; assay: Cell viability assay (MTT), NIH 3T3; assay type: cell-based, mouse; details: 10% FBS, 1% DMSO
# Method: as §1
# (§3) Table 15: 16-hour cell viability assay (MTT) in the presence of 10% Fetal Bovine Serum and 1% DMSO, in HCT116, MDA-MB-231, NIH3T3, HepG2 and primary hepatocytes. 5 10^4 to 10 10^4 cells were seeded in 48-well plates in growth medium containing 10% FBS, with or without various concentrations of test compounds. Data were analyzed and IC50s were calculated from dose-reponse curves using GraphPad Prism. Results summarized in the tables are mean±SEM of 1 to 2 independent experiments.
# as §2
# [3] = system: HCT116; assay: Cell viability assay (MTT), HCT116; assay type: cell-based, human; details: 1% DMSO
# Method: as §1
# (§4) Table 13: 6-day cell viability assay (MTT) in the presence of 0.5% Fetal Bovine Serum and 1% DMSO, in HCT116 and MDA-MB-231 cell lines. 7.5 10^4 to 15 10^4 cells were seeded in 48-well plates in growth medium containing 10% FBS, with or without various concentrations of test compounds. Cell cultures were fed every 3 days with the appropriate media. Cell viability was determined on day 6. Data were analyzed and IC50s were calculated from dose-response curves using GraphPad Prism. Results summarized in the tables are mean±SEM of 1 to 2 independent experiments.
# (§5) Table 14: 3-day cell viability assay (MTT) in the presence of 10% Fetal Bovine Serum and 1% DMSO, in DLD1, HCT116, MDA-MB-231, MCF7 and HeLa cells. 7.5 10^3 to 1.5 10^4 cells were seeded in 48-well plates in growth medium containing 10% FBS, with or without various concentrations of test compounds. Data were analyzed and IC50s were calculated from dose-response curves using GraphPad Prism. Results summarized in the tables are mean±SEM of 1 to 7 independent experiments.
# as §3, §2
# [4] = system: MDA-MB-231; assay: Cell viability assay (MTT), MDA-MB-231; assay type: cell-based, human; details: 1% DMSO
# Method: as §1, §4, §5, §3, §2
# [5] = Mus musculus, NIH3T3, 144 h, 6-day treatment
# [6] = Homo sapiens, HCT-116, 144 h, 10% FBS, 6-day treatment
# [7] = 10% FBS, 6-day treatment, read-out: IC50 μM, MDA-MB-231
# [8] = Homo sapiens, MDA-MB-231, 144 h, 10% FBS, 6-day treatment, read-out: IC50 μM, MDA-MB-231
Structure (SMILES),"IC50 ([3]; 10% FBS, 6-day treatment)","IC50 [3, 6]","IC50 ([1]; Homo sapiens, HMEC-1, 144 h)","IC50 [2, 5]",other results
"O=c1cc(COC2CCCCO2)occ1OCCCCCOc1ccnc2cc(C(F)(F)F)ccc12 (centres unmarked) [EHT 3788, 2-(Tetrahydro-pyran-2-yloxymethyl)-5-[5-(7-trifluoromethyl-quinolin-4-yloxy)-pentyloxy]-pyran-4-one]",2.1 µM,< 4 µM,< 10 µM,8.8 µM,IC50 [1]: 7.1 µM
"CNC(=O)N1CCN(Cc2cc(=O)c(OCCCCCSc3ccnc4cc(C(F)(F)F)ccc34)co2)CC1 [EHT 4495, 4-((5-(5-(7-(Trifluoromethyl)quinolin-4-ylthio)pentyloxy)-4-oxo-4H-pyran-2-yl)methyl)-N-methylpiperazine-1-carboxamide]",2.3 µM,< 4 µM,–,–,–
"O=c1cc(COC2CCCCO2)occ1OCCCCCCCSc1ccnc2cc(C(F)(F)F)ccc12 (centres unmarked) [EHT 8883, 5-(7-(7-(Trifluoromethyl)quinolin-4-ylthio)heptyloxy)-2-((tetrahydro-2H-pyran-2-yloxy)methyl)-4H-pyran-4-one]",–,–,< 10 µM,–,IC50 [1]: 8 µM
"COc1cc2c(cc1O)CC[C@@H]1[C@@H]2CC[C@]2(C)[C@@H](O)CC[C@@H]12 [2ME, 2-Methoxyestradiol, reference compound]",0.8 µM,–,–,–,"IC50 [1]: 2.1 µM; IC50 ([2]; 6-day treatment): 2.4 µM; IC50 ([2]; 16-hours treatment): > 150 µM; IC50 ([3]; 0.5% FBS, 6-day treatment): 3.1 µM; IC50 ([3]; 10% FBS, 16-hours treatment): 128 µM; IC50 ([4]; 0.5% FBS, 6-day treatment, read-out: IC50 (μM), MDA-MB-231): 15.4 µM; IC50 [4, 7]: 0.3 µM; IC50 ([4]; 10% FBS, 16-hours treatment, read-out: IC50 μM, MDA-MB-231): > 100 µM"
"CC(C)(C)OC(=O)N1CCN(Cc2cc(=O)c(OCCCCCSc3ccnc4cc(C(F)(F)F)ccc34)co2)CC1 [EHT 9358, tert-Butyl 4-((5-(5-(7-(trifluoromethyl)quinolin-4-ylthio)pentyloxy)-4-oxo-4H-pyran-2-yl)methyl)piperazine-1-carboxylate]",–,–,18.4 µM,7.7 µM,"IC50 ([3]; Homo sapiens, HCT-116, 144 h, 0.5% FBS, 6-day treatment): 1 µM"
"CCCc1ccc2cccnc2c1OCCCCCOc1coc(COC2CCCCO2)cc1=O (centres unmarked) [EHT 5810, 5-[5-(7-Propyl-quinolin-8-yloxy)-pentyloxy]-2-(tetrahydro-pyran-2-yloxymethyl)-4H-pyran-4-one]",–,8.4 µM,15.1 µM,–,–
"O=c1cc(CN2CCOCC2)occ1OCCOCCSc1ccnc2cc(C(F)(F)F)ccc12 [EHT 0371, 5-(2-(2-(7-(Trifluoromethyl)quinolin-4-ylthio)ethoxy)ethoxy)-2-(morpholinomethyl)-4H-pyran-4-one]",–,–,88.7 µM,–,–
"O=c1cc(CN2CCOCC2)occ1OCCCCCOc1ccnc2cc(C(F)(F)F)ccc12 [EHT 3411, 5-(5-(7-(Trifluoromethyl)quinolin-4-yloxy)pentyloxy)-2-(morpholinomethyl)-4H-pyran-4-one]",–,14.1 µM,62.4 µM,–,–
"CC(C)(C)NC(=O)N1CCN(Cc2cc(=O)c(OCCCCCSc3ccnc4cc(C(F)(F)F)ccc34)co2)CC1 [EHT 3664, 4-((5-(5-(7-(Trifluoromethyl)quinolin-4-ylthio)pentyloxy)-4-oxo-4H-pyran-2-yl)methyl)-N-tert-butylpiperazine-1-carboxamide]",–,–,< 10 µM,9.8 µM,"IC50 [1]: 10 µM; IC50 [4, 7]: 6.3 µM; IC50 [4, 8]: < 9 µM"
"CCOC(=O)c1cnc2cc(C(F)(F)F)ccc2c1OCCCCCOc1coc(CN2CCN(C)CC2)cc1=O [EHT 8791, 4-[5-(6-(4-Methyl-piperazin-1-ylmethyl)-4-oxo-4H-pyran-3-yloxy)-pentyloxy]-7-trifluoromethyl-quinoline-3-carboxylic acid ethyl ester]",–,~200 µM,~200 µM,–,–
"O=c1cc(CN2CCOCC2)occ1OCCCCCOc1ncnc2ccccc12 [EHT 3726, 5-(5-(Quinazolin-4-yloxy)pentyloxy)-2-(morpholinomethyl)-4H-pyran-4-one]",–,~200 µM,–,–,–
"O=c1cc(CN2CCOCC2)occ1OCCCCCOc1ccnc2c(C(F)(F)F)cccc12 [EHT 4687, 5-(5-(8-(Trifluoromethyl)quinolin-4-yloxy)pentyloxy)-2-(morpholinomethyl)-4H-pyran-4-one]",–,5.5 µM,39.1 µM,–,–
"CC(C)(C)C(=O)N1CCN(Cc2cc(=O)c(OCCCCCSc3ccnc4cc(C(F)(F)F)ccc34)co2)CC1 [EHT 0785, 5-(5-(7-(Trifluoromethyl)quinolin-4-ylthio)pentyloxy)-2-((4-(pivaloyl)piperazin-1-yl)methyl)-4H-pyran-4-one]",–,–,< 10 µM,11.6 µM,"difference of activity in HMEC1 cells as compared to HCT116 cells ([1]; MTT 6 days, compounds most active in HCT116): 5 fold; IC50 [1]: 9.6 µM; IC50 [4, 7]: 8.2 µM; IC50 [4, 8]: < 9 µM"

# Further lines, with some results ahead:
"IC50 ([3]; 10% FBS, 6-day treatment)","IC50 [3, 6]",Structure (SMILES),"IC50 ([1]; Homo sapiens, HMEC-1, 144 h)","IC50 [2, 5]",other results
2.1 µM,< 4 µM,"O=c1cc(CN2CCSCC2)occ1OCCCCCSc1ccnc2cc(C(F)(F)F)ccc12 [EHT 5430, 5-(5-(7-(Trifluoromethyl)quinolin-4-ylthio)pentyloxy)-2-(thiomorpholino-methyl)-4H-pyran-4-one]",20.1 µM,–,–
–,6.1 µM,"CN1CCN(Cc2cc(=O)c(OCCCCCOc3ccnc4c(C(F)(F)F)cccc34)co2)CC1 [EHT 5847, 5-(5-(8-(Trifluoromethyl)quinolin-4-yloxy)pentyloxy)-2-((4-methylpiperazin-1-yl)methyl)-4H-pyran-4-one]",31.6 µM,–,–
–,0.0055 µM,"CC(=O)O[C@H]1C(=O)[C@@]2(C)[C@H]([C@H](OC(=O)c3ccccc3)[C@]3(O)C[C@H](OC(=O)[C@H](O)[C@@H](NC(=O)c4ccccc4)c4ccccc4)C(C)=C1C3(C)C)[C@]1(OC(C)=O)CO[C@@H]1C[C@@H]2O [Taxol, Paclitaxel, reference compound]",0.0029 µM,~0.05 µM,"IC50 ([4]; Homo sapiens, MDA-MB-231, 72 h, 10% FBS, 3-day treatment, read-out: IC50, MDA-MB-231 (row labelled Taxol (nM))): 4.25e-06 µM; IC50 [4, 8]: 0.0036 µM"
–,18 µM,"O=c1cc(CN2CCOCC2)occ1OCCCCCOc1ccnc2ccc(C(F)(F)F)cc12 [EHT 1426, 5-(5-(6-(Trifluoromethyl)quinolin-4-yloxy)pentyloxy)-2-(morpholinomethyl)-4H-pyran-4-one]",–,–,–
2.4 µM,< 4 µM,"Cc1cc(OCCCCCOc2coc(COC3CCCCO3)cc2=O)c2cc(F)ccc2n1 (centres unmarked) [EHT 1593, 5-[5-(6-Fluoro-2-methyl-quinolin-4-yloxy)-pentyloxy]-2-(tetrahydro-pyran-2-yloxymethyl)-4H-pyran-4-one]",13.2 µM,21.5 µM,–
2 µM,< 4 µM,"O=c1cc(COC2CCCCO2)occ1OCCCCCOc1cccc2ccsc12 (centres unmarked) [EHT 6060, 5-[5-(Benzo[b]thiophen-7-yloxy)-pentyloxy]-2-(tetrahydro-pyran-2-yloxymethyl)-4H-pyran-4-one]",19.1 µM,–,–
–,12.5 µM,"CN1CCN(Cc2cc(=O)c(OCCCCCOc3ccnc4cc(C(F)(F)F)ccc34)co2)CC1 [EHT 0079, 5-(5-(7-(Trifluoromethyl)quinolin-4-yloxy)pentyloxy)-2-((4-methylpiperazin-1-yl)methyl)-4H-pyran-4-one]",28.6 µM,–,–
